Consider 19 compounds from patent US20140005163A1 (NOVARTIS AG, priority 2010, published 2014).

Converted amounts (≈) assume the structure as drawn. Where two headings read alike, the source gives them in different places.

Series [1] concerns PKB Ser473 phosphorylation in Rat1-myr-HA-p110 beta cells. The series can be described thus: Reverse protein array assay, PKB Ser473 phosphorylation in Rat1-myr-p110 beta cells. In kind it is cell-based. As to conditions: 0.5 h, pAkt Ser473, 30 minutes incubation, read-out: p-PKB IC50. The method, boiled down:
(§1)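 Rat1 cells expressing myristoylated HA-tagged p110 alpha, beta or delta were plated for at least 20 h, then exposed to 8-step serial compound dilutions (0.2% DMSO final) for 30 min at 37 °C. Lysates were spotted at four dilutions on protein microarrays, and relative fluorescence intensity of phospho-Ser473 PKB was calculated.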

Series [2] relates to PKB Ser473 phosphorylation in Rat1-myr-HA-p110 delta cells. Nature of the series: Reverse protein array assay, PKB Ser473 phosphorylation in Rat1-myr-p110 delta cells. The series is classed as cell-based. As to conditions: read-out: p-PKB IC50. The gist of the method:
as §1

The nature of another series: Solubility at pH 6.8. The series is classed as physicochemical. The method, boiled down:
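Following the procedure of Zhou et al. (2007), compound solubility was determined at pH 6.8.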

The next series concerns the target T1, PI3K beta (Homo sapiens, UniProt P42338).
T1 construct: for the full-length p110-b subunit are generated and fused by overlapping PCR; p85(iSH2) fusion partner (see partner chain) (N); His tag (C); made in house; host or cells: baculovirus; Tn5 (Trichoplusia ni) or TiniPro insect cells
Nature of the series: PI3K beta kinase assay (Kinase-Glo luminescence). The series is classed as biochemical. The gist of the method: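 Residual ATP after a 60 min room-temperature reaction is quantified by Kinase-Glo luminescence. Enzyme: 25 nM BV-949 (p85 iSH2–linker–full-length p110β); substrates 1 μM ATP, 10 μg/mL PI; buffer Tris pH 7.5, MgCl2, NaCl, CHAPS, DTT. Eight concentrations per compound, four-parameter logistic IC50.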

The subject of series [3] is PKB Ser473 phosphorylation in Rat1-myr-HA-p110 alpha cells. Nature of the series: Reverse protein array assay, PKB Ser473 phosphorylation in Rat1-myr-p110 alpha cells. In kind it is cell-based. The note with it: 0.5 h, pAkt Ser473, 30 minutes compound incubation, read-out: p-PKB IC50. The gist of the method:
as §1

The mark [4] stands for this setting: pH 6.8, aqueous buffer, thermodynamic from solid, read-out: solubility.

T1 sequence (P42338 with tags, fused parts or gaps limits assumed): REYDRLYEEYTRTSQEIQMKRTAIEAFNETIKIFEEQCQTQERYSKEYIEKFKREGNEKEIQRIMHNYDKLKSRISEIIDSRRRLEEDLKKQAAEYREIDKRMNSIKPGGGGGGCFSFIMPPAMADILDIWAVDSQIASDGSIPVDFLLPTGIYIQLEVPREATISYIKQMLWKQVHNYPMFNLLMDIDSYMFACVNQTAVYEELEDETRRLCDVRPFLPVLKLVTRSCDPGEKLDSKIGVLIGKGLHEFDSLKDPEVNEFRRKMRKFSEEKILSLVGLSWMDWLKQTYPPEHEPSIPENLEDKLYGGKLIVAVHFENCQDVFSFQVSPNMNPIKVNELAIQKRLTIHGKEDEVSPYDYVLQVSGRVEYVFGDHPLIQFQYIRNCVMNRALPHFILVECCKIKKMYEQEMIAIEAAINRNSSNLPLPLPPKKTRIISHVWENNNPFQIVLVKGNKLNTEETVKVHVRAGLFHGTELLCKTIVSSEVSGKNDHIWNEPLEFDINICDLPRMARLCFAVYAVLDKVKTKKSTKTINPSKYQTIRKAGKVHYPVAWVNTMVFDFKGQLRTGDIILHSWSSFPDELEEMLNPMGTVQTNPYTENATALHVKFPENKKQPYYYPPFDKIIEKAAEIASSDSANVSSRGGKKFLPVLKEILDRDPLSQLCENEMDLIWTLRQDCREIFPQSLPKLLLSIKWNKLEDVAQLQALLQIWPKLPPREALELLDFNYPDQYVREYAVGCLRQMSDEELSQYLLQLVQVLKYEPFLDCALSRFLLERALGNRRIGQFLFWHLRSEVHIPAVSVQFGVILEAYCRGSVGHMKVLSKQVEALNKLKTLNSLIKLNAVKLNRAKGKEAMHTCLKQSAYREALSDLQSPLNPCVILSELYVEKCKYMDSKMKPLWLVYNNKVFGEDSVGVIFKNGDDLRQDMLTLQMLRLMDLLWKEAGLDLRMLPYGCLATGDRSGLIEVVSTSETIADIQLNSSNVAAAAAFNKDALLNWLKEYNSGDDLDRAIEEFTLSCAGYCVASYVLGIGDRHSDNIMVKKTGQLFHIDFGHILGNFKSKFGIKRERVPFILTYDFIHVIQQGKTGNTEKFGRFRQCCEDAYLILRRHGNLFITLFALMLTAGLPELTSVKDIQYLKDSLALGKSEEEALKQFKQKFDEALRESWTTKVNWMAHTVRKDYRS

Consider `COc1ccc(-c2ccc3ncc4c(c3c2)n(-c2ccnn2C)c(=O)n4C)cc1OC` [Example 1.3, 8-(3,4-Dimethoxy-phenyl)-3-methyl-1-(2-methyl-2H-pyrazol-3-yl)-1,3-dihydro-imidazo[4,5-c]quinolin-2-one], for which the 50% inhibitory concentration (IC50) (commonly the concentration at which inhibition is half-maximal) in series [1] was 96 nM; in series [2] it was 140 nM; at PI3K beta, 129 nM; in series [3] it was 46 nM. Further, the solubility (in general, the dissolved amount per volume that the medium holds) in the series “Solubility at pH 6.8” (pH 6.8) worked out at 2 µg/mL (≈ 4.81 µM).
Consider `COc1ccc(-c2ccc3ncc4c(c3c2)n(-c2cn(C)nc2C)c(=O)n4C)cc1OC` [Example 1.8, 8-(3,4-Dimethoxy-phenyl)-1-(1,3-dimethyl-1H-pyrazol-4-yl)-3-methyl-1,3-dihydro-imidazo[4,5-c]quinolin-2-one], for which the IC50 in series [1] is 8 nM; in series [2], 14 nM; at PI3K beta, 20 nM; in series [3] it was 9 nM. Moreover, the solubility in the series “Solubility at pH 6.8” (setting [4]) came out at 10 µg/mL (≈ 23.3 µM).
In the same order, the values of `COc1ccc(-c2ccc3ncc4c(c3c2)n(-c2cc(C)nn2C)c(=O)n4C)cn1` [Example 2.3, 1-(2,5-Dimethyl-2H-pyrazol-3-yl)-8-(6-methoxy-pyridin-3-yl)-3-methyl-1,3-dihydro-imidazo[4,5-c]quinolin-2-one] are 116 nM, 240 nM, 180 nM, 12 nM and 7 µg/mL (≈ 17.5 µM).
Regarding `COc1ccc(-c2ccc3ncc4c(c3c2)n(-c2cn(C(C)C)nc2C)c(=O)n4C)cn1` [Example 2.8, 1-(1-Isopropyl-3-methyl-1H-pyrazol-4-yl)-8-(6-methoxy-pyridin-3-yl)-3-methyl-1,3-dihydro-imidazo[4,5-c]quinolin-2-one], the half-maximal inhibitory concentration (IC50) in series [1] was determined as 41 nM; in series [2], 105 nM; at PI3K beta, 109 nM; in series [3], 46 nM. For the same compound, in the series “Solubility at pH 6.8” (pH 6.8), the solubility is 2 µg/mL (≈ 4.67 µM).
Take `CCOc1ccc(-c2ccc3ncc4c(c3c2)n(-c2ccnn2CC)c(=O)n4C)cn1` [Example 3.4, 8-(6-Ethoxy-pyridin-3-yl)-1-(2-ethyl-2H-pyrazol-3-yl)-3-methyl-1,3-dihydro-imidazo[4,5-c]quinolin-2-one]: the IC50 was 248 nM in series [1], 418 nM in series [2] and 214 nM in series [3]. For the same compound, the solubility in “Solubility at pH 6.8” (pH 6.8) was 2 µg/mL (≈ 4.83 µM).
On to `CCOc1ccc(-c2ccc3ncc4c(c3c2)n(-c2cn(CC)nc2C)c(=O)n4C)cn1` [Example 3.5, 8-(6-Ethoxy-pyridin-3-yl)-1-(1-ethyl-3-methyl-1H-pyrazol-4-yl)-3-methyl-1,3-dihydro-imidazo[4,5-c]quinolin-2-one], for which the IC50 in series [1] was found to be 29 nM; in series [2], 137 nM; at PI3K beta, 340 nM; in series [3], 35 nM. Also, the solubility in “Solubility at pH 6.8” (setting [4]) was found to be 4 µg/mL (≈ 9.33 µM).
For the compound `CCOc1ccc(-c2ccc3ncc4c(c3c2)n(-c2cnn(C)c2C)c(=O)n4C)cn1` [Example 3.6, 1-(1,5-Dimethyl-1H-pyrazol-4-yl)-8-(6-ethoxy-pyridin-3-yl)-3-methyl-1,3-dihydro-imidazo[4,5-c]quinolin-2-one], the IC50 in series [1] was 119 nM; in series [2] it was 232 nM; on PI3K beta it was 477 nM; in series [3], 45 nM. This compound yielded a solubility in “Solubility at pH 6.8” (pH 6.8) of 2 µg/mL (≈ 4.83 µM).
Regarding `Cc1nn(C(C)C)cc1-n1c(=O)n(C)c2cnc3ccc(-c4ccc(N(C)C)nc4)cc3c21` [Example 4.1, 8-(6-Dimethylamino-pyridin-3-yl)-1-(1-isopropyl-3-methyl-1H-pyrazol-4-yl)-3-methyl-1,3-dihydro-imidazo[4,5-c]quinolin-2-one], the IC50 in series [1] turned out to be 19 nM; in series [2] it was 59 nM; at PI3K beta it was 762 nM; in series [3], 16 nM. For the same compound, the solubility in “Solubility at pH 6.8” (setting [4]) amounted to 336 µg/mL (≈ 761 µM).
In the same order, the values of `CCn1cc(-n2c(=O)n(C)c3cnc4ccc(-c5cnc(N(C)C)nc5)cc4c32)c(C)n1` [Example 6.4, 8-(2-Dimethylamino-pyrimidin-5-yl)-1-(1-ethyl-3-methyl-1H-pyrazol-4-yl)-3-methyl-1,3-dihydro-imidazo[4,5-c]quinolin-2-one] are 52 nM, 62 nM, 495 nM, 42 nM and 36 µg/mL (≈ 84 µM).
In the case of `CNC(=O)c1ccc(-c2ccc3ncc4c(c3c2)n(-c2cn(C(C)C)nc2C)c(=O)n4C)cn1` [Example 15.3, 5-[1-(1-Isopropyl-3-methyl-1H-pyrazol-4-yl)-3-methyl-2-oxo-2,3-dihydro-1H-imidazo[4,5-c]quinolin-8-yl]-pyridine-2-carboxylic acid methylamide], the IC50 in series [1] is 21 nM; in series [2] it was 100 nM; on PI3K beta, 526 nM; in series [3], 28 nM. Moreover, the solubility in the series “Solubility at pH 6.8” (setting [4]) came out at 5 µg/mL (≈ 11 µM).
Take `Cc1nn(C)cc1-n1c(=O)n(C)c2cnc3ccc(-c4ccc(CO)nc4)cc3c21` [Example 16.2, 1-(1,3-Dimethyl-1H-pyrazol-4-yl)-8-(6-hydroxymethyl-pyridin-3-yl)-3-methyl-1,3-dihydro-imidazo[4,5-c]quinolin-2-one]: the IC50 in series [1] stood at 70 nM; in series [2], 151 nM; at PI3K beta, 171 nM; in series [3], 151 nM. Further, the solubility in “Solubility at pH 6.8” (setting [4]) amounted to 102 µg/mL (≈ 255 µM).
As for `COCCOc1ccc(-c2ccc3ncc4c(c3c2)n(-c2cn(C)nc2C)c(=O)n4C)cn1` [Example 18, 1-(1,3-Dimethyl-1H-pyrazol-4-yl)-8-[6-(2-methoxy-ethoxy)-pyridin-3-yl]-3-methyl-1,3-dihydro-imidazo[4,5-c]quinolin-2-one], the IC50 was 231 nM in series [1], 314 nM in series [2], 252 nM on PI3K beta and 139 nM in series [3]. Also, the solubility in the series “Solubility at pH 6.8” (setting [4]) came to 240 µg/mL (≈ 540 µM).
For the compound `CCOc1ccc(-c2ccc3ncc4c(c3c2)n(-c2cn(CC)nc2C)c(=O)n4C)cc1OCC` [Example 27.1, 8-(3,4-Diethoxy-phenyl)-1-(1-ethyl-3-methyl-1H-pyrazol-4-yl)-3-methyl-1,3-dihydro-imidazo[4,5-c]quinolin-2-one], the IC50 in series [1] is 21 nM; in series [2], 56 nM; at PI3K beta it was 122 nM; in series [3] it was 17 nM. Also, in the series “Solubility at pH 6.8” (pH 6.8), the solubility was 2 µg/mL (≈ 4.24 µM).
Regarding `CCOc1cc(-c2ccc3ncc4c(c3c2)n(-c2cn(CC)nc2C)c(=O)n4C)ccc1OC` [Example 28.1, 8-(3-Ethoxy-4-methoxy-phenyl)-1-(1-ethyl-3-methyl-1H-pyrazol-4-yl)-3-methyl-1,3-dihydro-imidazo[4,5-c]quinolin-2-one], the IC50 stood at 29 nM in series [1], 45 nM in series [2], 15 nM at PI3K beta and 7 nM in series [3]. Further, the solubility in the series “Solubility at pH 6.8” (setting [4]) came out at 9 µg/mL (≈ 19.7 µM).
`Cc1nn(CC(=O)N(C)C)cc1-n1c(=O)n(C)c2cnc3ccc(-c4ccccc4)cc3c21` [Example 37.3, N,N-Dimethyl-2-[3-methyl-4-(3-methyl-2-oxo-8-phenyl-2,3-dihydro-imidazo[4,5-c]quinolin-1-yl)-pyrazol-1-yl]-acetamide]: the 50% inhibitory concentration (IC50) was 235 nM in series [1], 362 nM in series [2] and 40 nM in series [3]. Also, the solubility in the series “Solubility at pH 6.8” (setting [4]) was found to be 41 µg/mL (≈ 93.1 µM).
Regarding `Cc1nn(CC(=O)N(C)C)c(C)c1-n1c(=O)n(C)c2cnc3ccc(-c4cncc(OC5CCC5)c4)cc3c21` [Example 60.2, 2-{4-[8-(5-Cyclobutoxy-pyridin-3-yl)-3-methyl-2-oxo-2,3-dihydro-imidazo[4,5-c]quinolin-1-yl]-3,5-dimethyl-pyrazol-1-yl}-N,N-dimethyl-acetamide], the solubility in “Solubility at pH 6.8” (setting [4]) was found to be 76 µg/mL (≈ 145 µM). For the same compound, the IC50 in series [3] was 829 nM.
Consider `Cc1nn(C)cc1-n1c(=O)n(C)c2cnc3ccc(-c4ccc(-n5cccn5)nc4)cc3c21` [Example 79, 1-(1,3-Dimethyl-1H-pyrazol-4-yl)-3-methyl-8-(6-pyrazol-1-yl-pyridin-3-yl)-1,3-dihydro-imidazo[4,5-c]quinolin-2-one], for which the IC50 was found to be 7 nM in series [1], 16 nM in series [2] and 1 nM in series [3]. The compound further displayed a solubility in the series “Solubility at pH 6.8” (pH 6.8) of 2 µg/mL (≈ 4.58 µM).
As for `CCN(C)C(=O)Cn1cc(-n2c(=O)n(C)c3cnc4ccc(-c5ccccc5)cc4c32)c(C)n1` [Example 135, N-Ethyl-N-methyl-2-[3-methyl-4-(3-methyl-2-oxo-8-phenyl-2,3-dihydro-imidazo[4,5-c]quinolin-1-yl)-pyrazol-1-yl]-acetamide], the values for the IC50 in series [1], in series [2] and in series [3] were 118 nM, 363 nM and 26 nM, respectively. Moreover, the solubility in “Solubility at pH 6.8” (setting [4]) is 164 µg/mL (≈ 361 µM).
With `CCN(C)C(=O)Cn1cc(-n2c(=O)n(C)c3cnc4ccc(-c5cnc(N6CCCC6)nc5)cc4c32)c(C)n1` [Example 140.1, N-Ethyl-N-methyl-2-{3-methyl-4-[3-methyl-2-oxo-8-(2-pyrrolidin-1-yl-pyrimidin-5-yl)-2,3-dihydro-imidazo[4,5-c]quinolin-1-yl]-pyrazol-1-yl}-acetamide], the IC50 in series [1] amounted to 100 nM; in series [2], 307 nM; in series [3] it was 84 nM. The solubility in “Solubility at pH 6.8” (setting [4]) was 36 µg/mL (≈ 68.5 µM).
